Results reported in patent publication US20180321220A1, “UNIVERSAL BIOELECTROCHEMICAL METABOLIC FLUX MEASUREMENT SYSTEM AND METHODS OF MAKING AND USING THE SAME” (Saint Louis University, priority 2015, published 2018).

Legend:
mouse liver mitochondria [1] = experiment: Metabolic flux analysis (amperometry) of mouse liver mitochondria suspension; format: biochemical; conditions: for inhibitory response (electron flux): substrate not stated; for inhibitory response (electron flux) / attenuation of electron flux: in words; for Electron flux generated: rotenone present (1 μl of 1 mg/ml in DMSO), 120 seconds of measurement, 600 mV
Text: (§1) Materials. Sodium phosphate monobasic (Sigma), sodium phosphate dibasic (Sigma), sodium chloride (Sigma), sodium pyruvate (Sigma), citric acid (Sigma), rotenone (Sigma), adenosine diphosphate (Sigma), sucrose (Sigma), Tris-EDTA (Sigma), Protease inhibitor cocktail (Sigma), deionized water (in house), and dimethylsulfoxide (Sigma) were used as received. All wild-type Drosophila larvae were hatched and grown on standard cornmeal-agar-molasses-yeast food at room temperature. Individual larvae were selected used for metabolic flux analysis. Mitochondria were isolated from normal mice liver. All steps were carried out at 4° C. Tissues were kept on ice. The liver tissue was homogenized in 3 volumes of Buffer A (0.33 M sucrose, 1.33 m M Tris-EDTA, pH 7.4 buffer containing protease inhibitors) using potter Dounce homogenizer. Once homogenized two more volumes of Buffer A were added and mixed before centrifugation at 1000 Xg for 10-15 mins. The supernatant was then recovered and centrifuged 2 times more to remove impurities. Finally, the supernatant was recovered and centrifuged at 15,000 Xg for 20 mins. The mitochondrial pellet recovered from the bottom of the centrifuge tube and suspended at a protein concentration of 35 mg/ml in phosphate buffered saline at pH 7.5. Once the extraction was complete the mitochondria was stored at −80° C. in small aliquots for further use.
Metabolic flux analysis. The electrochemical test setup consisted of a USTAT 200 Bipotentiostat coupled to a Dropsens SPE 110 screen printed electrode chip that included a carbon working electrode, a carbon counter electrode, and a silver reference electrode. The working substrate solution consisted of pH 7.40 10 mM phosphate buffer, 137 mM sodium chloride, 10 mM metabolic substrate, and 1 mg/ml adenosine diphosphate. The inhibitor solution consisted of 1 mg/ml rotenone in dimethyl sulfoxide. For uninhibited experiments pure dimethyl sulfoxide was used to maintain consistency. To the electrode 35 μl of substrate solution was dropped on top of the 3 electrode working area of the chip ensuring that all of the electrode surfaces were thoroughly wetted. To this drop, 1 μl of dimethyl sulfoxide was added that may or may not contain inhibitor. When the experiment was ready to begin the sample was added to the electrode. For mitochondrial suspension, 15 μL of the suspension was added to the working area of the chip. For the larvae, one larvae was placed into the drop of solution on to the working electrode. Amperometry was then performed with an applied potential of 600 mV with respect to the reference electrode for 120 seconds.

mouse liver mitochondria [2] = conditions: pyruvate as substrate, in words; Dröse et al. cited; cited from earlier work
whole drosophilae larvae = experiment: Metabolic flux analysis (amperometry) of whole Drosophila larvae; format: in vivo
Text: as §1, with “Once the extraction was complete the mitochondria was stored at −80° C. in small aliquots for further use.” left out
Metabolic flux analysis. […] When the experiment was ready to begin the sample was added to the electrode. […]

Compound | inhibitory response (electron flux) (mouse liver mitochondria [1]) | inhibition of electron flux (mouse liver mitochondria [2]) | attenuation of electron flux (mouse liver mitochondria [1]; citrate as metabolic substrate) | Electron flux generated (mouse liver mitochondria [1]; citrate as substrate) | attenuation of electron flux (mouse liver mitochondria [1]; pyruvate as metabolic substrate) | Electron flux generated (mouse liver mitochondria [1]; pyruvate as substrate) | Electron flux generated (whole drosophilae larvae; glucose as substrate, rotenone present (1 μl of 1 mg/ml in DMSO), 120 seconds of measurement, 600 mV) | attenuation of metabolic flux (whole drosophilae larvae; glucose solution, in words)
antimycin | strong inhibitory responses |  |  |  |  |  |  | 
CC1=NS(=O)(=O)c2cc(Cl)ccc2N1 [diazoxide] |  | partial inhibition |  |  |  |  |  | 
C=C(C)[C@H]1Cc2c(ccc3c2O[C@@H]2COc4cc(OC)c(OC)cc4[C@@H]2C3=O)O1 [rotenone] | strong inhibitory responses |  | did not exhibit significant inhibition | 1.536×10^−4 micromoles of electrons | diminished | 1.435×10^−4 micromoles of electrons | 3.302×10^−4 micromoles of electrons | diminished
